From patent publication US9833497B2, “Human originated EGF domain proteins and use of the same” (CHENGDU SOURCEBIO LIMITED-LIABILITY COMPANY, priority 2013, dated 2017) come the findings set out here.

What is called MIC is the smallest concentration in the dilution series that meets the test's criterion for growth inhibition. A higher MIC goes with a less susceptible organism.

Format in all cases: cell-based
In one assay the test system is E. coli DH5α. Put plainly: Antibacterial activity: MIC and growth curve against E. coli DH5α in 96-well plate. As to conditions: minimal inhibitory concentration against E. coli DH5α; 96-well plate, 5×10^5 CFU/mL, 37° C., judged after 8 h. In a few lines: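 Log-phase bacteria (OD600 ~0.5) resuspended in LB at 5×10^5 CFU/mL, exposed to recombinant protein at 50, 25, 12.5 μg/mL final in triplicate, 37 °C shaking at 175 rpm. OD600 read every 30 min; MIC is lowest concentration showing no growth.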

The next assay deals with E. coli BL21. Put plainly: MIC against Gram-negative bacteria: E. coli BL21. To be noted: E. coli BL21, 10 h cultivation at 37° C. In outline:
(§1)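 Two-fold serial dilutions of each purified human EGF domain protein, three replicate wells per level, were combined with bacteria at a final 5×10^5 CFU/mL in LB. Cultures were shaken at 175 rpm, 37° C. The MIC was taken as the minimum concentration preventing growth.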

The test system of another assay is Pseudomonas aeruginosa. Put plainly: MIC against Gram-negative bacteria: Pseudomonas aeruginosa. As to conditions: P. aeruginosa, 10 h cultivation at 37° C. In a few lines:
as §1

Another assay relates to Klebsiella pneumonia. As to the kind of experiment: MIC against Gram-negative bacteria: Klebsiella pneumonia. As to conditions: K. pneumonia, 10 h cultivation at 37° C. In a few lines: as §1
The subject of the next assay is Enterobacter cloacae. Put plainly: MIC against Gram-negative bacteria: Enterobacter cloacae. To be noted: E. cloacae, 10 h cultivation at 37° C. In a few lines: as §1
A further assay has as its system Aeromonas hydrophila. Put plainly: MIC against Gram-negative bacteria: Aeromonas hydrophila. As to conditions: A. hydrophila, 10 h cultivation at 37° C. In outline:
as §1

A further assay concerns Citrobacter diversus. As to the kind of experiment: MIC against Gram-negative bacteria: Citrobacter diversus. As to conditions: C. diversus, 10 h cultivation at 37° C. In a few lines: as §1
The test system of another assay is Moraxella catarrhalis. Put plainly: MIC against Gram-negative bacteria: Moraxella catarrhalis. To be noted: M. catarrhalis, 10 h cultivation at 37° C. In a few lines: as §1
A further assay has as its system Proteus mirabilis. As to the kind of experiment: MIC against Gram-negative bacteria: Proteus mirabilis. To be noted: P. mirabilis, 10 h cultivation at 37° C. In outline: as §1
The next assay has as its system Proteus vulgaris. As to the kind of experiment: MIC against Gram-negative bacteria: Proteus vulgaris. As to conditions: P. vulgaris, 10 h cultivation at 37° C. In a few lines:
as §1

For the next assay, the system named is Serratia marcescens. Put plainly: MIC against Gram-negative bacteria: Serratia marcescens. To be noted: S. marcescens, 10 h cultivation at 37° C. In outline: as §1

On to “PRT996 (DIDECRSSPCANGGQCQDQPGAFHCKCLPGFEGPRCQ; listed as Homo sapiens)”, for which the MIC is 25 µg/mL against E. coli DH5α; 12.5 µg/mL in the assay with E. coli BL21; 25 µg/mL against Pseudomonas aeruginosa; 12.5 µg/mL against Klebsiella pneumonia; 12.5 µg/mL against Enterobacter cloacae; 100 µg/mL against Aeromonas hydrophila. Besides, the MIC worked out at 12.5 µg/mL in the assay on Citrobacter diversus; 25 µg/mL with Moraxella catarrhalis; 12.5 µg/mL with Proteus mirabilis; 25 µg/mL against Proteus vulgaris; 12.5 µg/mL against Serratia marcescens.
“PRT158 (PGESHANDLECSGKGKCTTKPSEATFSCTCEEQYVGTFCE; listed as Homo sapiens)” gave an MIC in the assay on E. coli DH5α of 12.5 µg/mL. The “MIC (μg/mL) E. coli BL21” value in the assay on E. coli BL21 (5×10^5 CFU/mL) is 12.5 µg/mL. For the same substance, the “MIC (μg/mL) P. aeruginosa” value against Pseudomonas aeruginosa (5×10^5 CFU/mL) stood at 50 µg/mL. Also, the “MIC (μg/mL) K. pneumonia” value against Klebsiella pneumonia (5×10^5 CFU/mL) was 12.5 µg/mL. Also, the “MIC (μg/mL) E. cloacae” value with Enterobacter cloacae (5×10^5 CFU/mL) is 50 µg/mL. In addition, in the assay with Aeromonas hydrophila (5×10^5 CFU/mL), the “MIC (μg/mL) A. hydrophila” value was 25 µg/mL. The “MIC (μg/mL) C. diversus” value against Citrobacter diversus (5×10^5 CFU/mL) was 12.5 µg/mL. In the assay on Moraxella catarrhalis (5×10^5 CFU/mL), the “MIC (μg/mL) M. catarrhalis” value was found to be 25 µg/mL. In the assay with Proteus mirabilis (5×10^5 CFU/mL), the “MIC (μg/mL) P. mirabilis” value is 50 µg/mL. The “MIC (μg/mL) P. vulgaris” value with Proteus vulgaris (5×10^5 CFU/mL) was found to be 25 µg/mL. Further, the “MIC (μg/mL) S. marcescens” value against Serratia marcescens (5×10^5 CFU/mL) came to 12.5 µg/mL.
For “PRT809 (NESCTCANGAACSPIDGSCSCTPGWLGDTCE; listed as Homo sapiens)”, the MIC against E. coli DH5α was 25 µg/mL. The “MIC (μg/mL) E. coli BL21” value in the assay with E. coli BL21 (5×10^5 CFU/mL) was 12.5 µg/mL. The “MIC (μg/mL) P. aeruginosa” value in the assay with Pseudomonas aeruginosa (5×10^5 CFU/mL) was 25 µg/mL. Further, the “MIC (μg/mL) K. pneumonia” value against Klebsiella pneumonia (5×10^5 CFU/mL) is 25 µg/mL. Moreover, the “MIC (μg/mL) E. cloacae” value in the assay on Enterobacter cloacae (5×10^5 CFU/mL) came out at 50 µg/mL. For the same substance, the “MIC (μg/mL) A. hydrophila” value in the assay with Aeromonas hydrophila (5×10^5 CFU/mL) worked out at 12.5 µg/mL. Besides, the “MIC (μg/mL) C. diversus” value in the assay on Citrobacter diversus (5×10^5 CFU/mL) came out at 25 µg/mL. In the assay on Moraxella catarrhalis (5×10^5 CFU/mL), the “MIC (μg/mL) M. catarrhalis” value was 50 µg/mL. The “MIC (μg/mL) P. mirabilis” value in the assay on Proteus mirabilis (5×10^5 CFU/mL) was 25 µg/mL. For the same substance, in the assay with Proteus vulgaris (5×10^5 CFU/mL), the “MIC (μg/mL) P. vulgaris” value is 12.5 µg/mL. The “MIC (μg/mL) S. marcescens” value against Serratia marcescens (5×10^5 CFU/mL) was found to be 25 µg/mL.
For “PRT418 (DINECSSSPCSQECANVYGSYQCYCRRGYQLSDVDGVTCE; listed as Homo sapiens)”, the MIC with E. coli DH5α worked out at 12.5 µg/mL; with E. coli BL21 (5×10^5 CFU/mL), 12.5 µg/mL; in the assay on Pseudomonas aeruginosa (5×10^5 CFU/mL), 12.5 µg/mL; against Klebsiella pneumonia (5×10^5 CFU/mL) it was 50 µg/mL; against Enterobacter cloacae (5×10^5 CFU/mL), 12.5 µg/mL; with Aeromonas hydrophila (5×10^5 CFU/mL), 25 µg/mL. Moreover, the MIC in the assay on Citrobacter diversus (5×10^5 CFU/mL) is 50 µg/mL; in the assay on Moraxella catarrhalis (5×10^5 CFU/mL), 25 µg/mL; with Proteus mirabilis (5×10^5 CFU/mL) it was 12.5 µg/mL; in the assay with Proteus vulgaris (5×10^5 CFU/mL), 25 µg/mL; with Serratia marcescens (5×10^5 CFU/mL), 50 µg/mL.
With “PRT964 (NIDDCASNPCTFGVCRDGINRYDCVCQPGFTGPLCN; listed as Homo sapiens)”, the MIC in the assay with E. coli DH5α was 12.5 µg/mL; against E. coli BL21, 25 µg/mL; in the assay on Pseudomonas aeruginosa, 50 µg/mL; in the assay on Klebsiella pneumonia, 25 µg/mL; with Enterobacter cloacae it was 12.5 µg/mL; in the assay on Aeromonas hydrophila, 25 µg/mL. The MIC with Citrobacter diversus was determined as 50 µg/mL; in the assay on Moraxella catarrhalis, 25 µg/mL; with Proteus mirabilis it was 25 µg/mL; in the assay with Proteus vulgaris it was 12.5 µg/mL; against Serratia marcescens, 50 µg/mL.
